Source: patent publication US12617777B2, “GPR84 antagonists and uses thereof” (Liminal BioSciences Limited, priority 2021, dated 2026)

Molecular target: T1, human GPR84 receptor (Homo sapiens, UniProt Q9NQS5)
T1 construct: host or cells: HEK293, transient transfection
Experiment: Gαi biosensor BRET assay in HEK293 cells (antagonism of ZQ-16)
Assay type: cell-based
Details: for inhibition at 2 µM: HEK293, single concentration 2 μM (designated A); for IC50: HEK293 cells, antagonism of 200 nmol/L ZQ-16; for inhibition at 10 µM: HEK293, single concentration 10 μM (designated F); for inhibition at 25 µM: HEK293, single concentration 25 μM (designated I)
Outline: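 Antagonist mode: test compound 5 min at 37° C, followed by ZQ-16 agonist (200 nmol/L, 5 min, room temperature), in HEK293 cells transfected with GPR84 plus Rluc8-tagged Gαi2, GFP10-Gγ2 and Gβ1. Readout as GFP10/Rluc8 emission ratio after 5 μmol/L coelenterazine 400A, net of Rluc8-only and vehicle signal.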

T1 sequence (Q9NQS5 whole entry): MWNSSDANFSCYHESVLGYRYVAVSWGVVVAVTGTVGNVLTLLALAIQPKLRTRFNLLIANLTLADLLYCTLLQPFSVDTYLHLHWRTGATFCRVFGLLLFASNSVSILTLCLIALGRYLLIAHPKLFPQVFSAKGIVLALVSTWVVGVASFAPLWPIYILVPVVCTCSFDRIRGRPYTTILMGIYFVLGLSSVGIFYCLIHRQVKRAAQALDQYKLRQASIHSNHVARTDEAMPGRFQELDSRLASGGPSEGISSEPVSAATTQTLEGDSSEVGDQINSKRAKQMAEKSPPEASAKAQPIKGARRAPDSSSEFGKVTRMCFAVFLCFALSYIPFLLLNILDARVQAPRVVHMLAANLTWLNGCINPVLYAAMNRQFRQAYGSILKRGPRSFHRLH

Structure (SMILES)	inhibition at 10 µM	other results
CC1(C)COC(Cn2cc(-c3ccc(N4CC(C)(CO)C4)cc3CC(F)(F)F)nn2)C1 (centres unmarked) [Compound I-740]		inhibition at 2 µM: > 75%; IC50: ≤ 300 nM
Cc1cc(N2CC3(CN(C)C3)C2)ccc1-c1cn(CC2CCCCO2)nn1 (centres unmarked) [Compound I-145]	≤ 25%	
Cc1cc(N2CC(C)(F)C2)ccc1-c1cn(CC2CCCCO2)nn1 (centres unmarked) [Compound I-519]	25 to 50%	
Cc1cc(C#CC2CC2)ccc1-c1cn(CC2CCCCO2)nc1C (centres unmarked) [Compound I-326]	≤ 25%	
Cc1cc(C#CCNc2ccccc2)ccc1-c1cn(CC2CCCO2)nn1 (centres unmarked) [Compound I-62]	> 75%	IC50: > 3000 nM
CN(C)c1cc(C#CCN2CC(C)(C)C2)c(F)cc1-c1cn(CC2OCC3(CCC3)O2)nn1 (centres unmarked) [Compound I-821]	> 75%	
Cc1cc(C#CCNC2CC2)ccc1-c1cn(CC2OCC(C)(C)CO2)nn1 [Compound I-697]	> 75%	IC50: 300 to 1000 nM
Cc1cc(N2CC3(CCNCC3)C2)ccc1-c1cn(CC2CCCCO2)nn1 (centres unmarked) [Compound I-154]	25 to 50%	
Cc1cc(C#CC2CC2)ccc1-c1cn(CC2OCc3ccccc32)nn1 (centres unmarked) [Compound I-100]	≤ 25%	
Cc1cc(C#CC2CC2)ccc1-c1cn(CC2OCCCC2(C)C)nn1 (centres unmarked) [Compound I-522, 4-(4-(cyclopropylethynyl)-2-methylphenyl)-1-((3,3-dimethyltetrahydro-2H-pyran-2-yl)methyl)-1H-1,2,3-triazole]	50 to 75%	
Cc1cc(C#CC2CC2)cnc1-c1cn(CC2CC(C)(C)O2)nn1 (centres unmarked) [Compound I-420]	50 to 75%	
COC(=O)N1CCCCC1Cn1cc(-c2ccc(C#CC3CC3)cc2C)nn1 (centres unmarked) [Compound I-190]	≤ 25%	
Cc1ccc(-c2ccc(-c3cn(CC4CCCCO4)nn3)cc2)cn1 (centres unmarked) [Compound I-39]		inhibition at 25 µM: > 75%; IC50: > 3000 nM
Cc1cc(N2CCN(Cc3ncccn3)CC2)ccc1-c1cn(CC2CCCCO2)nn1 (centres unmarked) [Compound I-547]	25 to 50%	
Cc1cc(C#CC2CC2)ccc1-c1nn(CC2CCCCO2)c(=O)o1 (centres unmarked) [Compound I-15]	≤ 25%	
Cc1ccc(-c2cccc(-c3cn(C[C@H]4CCCCO4)nn3)c2)cn1 [Compound I-33]		inhibition at 25 µM: 25 to 50%
Cc1cc(N2CCN(Cc3ccncc3)CC2)ccc1-c1cn(CC2CCCCO2)nn1 (centres unmarked) [Compound I-549]	50 to 75%	IC50: 1000 to 3000 nM
Cc1cc(N2CCN(Cc3ccccn3)CC2)ccc1-c1cn(CC2OCC3(CC3)CO2)cn1 [Compound I-795]	25 to 50%	IC50: ≤ 300 nM
CC1(C)COC(Cn2cc(-c3ncc(C#CCNCc4ccccn4)cc3OC3CC3)nn2)OC1 [Compound I-772]		IC50: ≤ 300 nM
Cc1cc(C#CC2CC2)ccc1-c1cn(C[C@H]2COC(C)(C)O2)nn1 [Compound I-222]	50 to 75%	
Cc1cc(C#CCNc2ccccc2)cnc1-c1cn(C[C@H]2CCCCO2)nn1 [Compound I-394]	> 75%	
Cc1cc(C#CC2CC2)ccc1-c1cn(CC2CCCCS2)nn1 (centres unmarked) [Compound I-258]	50 to 75%	
Cc1cc(N2CC3(CCN(c4ccccn4)CC3)C2)ccc1-c1cn(CC2CCCCO2)nn1 (centres unmarked) [Compound I-567]	50 to 75%	IC50: 1000 to 3000 nM

Structure (SMILES)	inhibition at 10 µM	other results
Cc1ccc(C#CC2CC2)cc1C(CC(F)(F)F)c1cn(CC2OCC(C)(C)CO2)nn1 (centres unmarked) [Compound I-681]		inhibition at 2 µM: > 75%; IC50: 300 to 1000 nM
Cc1cc(N2CC3(CN(Cc4ccccn4)C3)C2)ccc1-c1cn(CC2CCCCO2)nn1 (centres unmarked) [Compound I-429]	25 to 50%	
Cc1ccc(C#CCNc2ccccc2)cc1-c1cn(CC2CCCCO2)nn1 (centres unmarked) [Compound I-178]	≤ 25%	
Cc1cc(OCC(C)(C)N(C)C)ccc1-c1cn(C[C@H]2CCCCO2)nn1 [Compound I-289]	25 to 50%	
CN(C)c1cc(N2CC3(COC3)C2)ccc1-c1cn(CC2OCC3(CC3)CO2)nn1 [Compound I-853]	≤ 25%	
Cc1cc(N2CC(CO)C2)ccc1-c1cn(CC2CCCCO2)nn1 (centres unmarked) [Compound I-471]	> 75%	
Cc1cc(C#CCN2CC(C)(C)C2)cnc1-c1cn(CCc2ncccn2)nn1 [Compound I-717]	≤ 25%	
Cc1cccc(C#Cc2cn(CC3OCC(C)(C)CO3)nn2)c1 [Compound I-790, 1-((5,5-dimethyl-1,3-dioxan-2-yl)methyl)-4-(m-tolylethynyl)-1H-1,2,3-triazole]	≤ 25%	
CN(C)c1cc(N2CC(C)(CO)C2)ccc1-c1cn(CC2OCC3(CCC3)O2)nn1 (centres unmarked) [Compound I-728]	> 75%	
CN(CC#Cc1cnc(-c2cn(CC3OCC(C)(C)CO3)nn2)c(OC2CC2)c1)C1CC1 [Compound I-858]		inhibition at 2 µM: > 75%
CC(C)Oc1cc(N2CC(C)(C)C2)cnc1-c1cn(CC2OCC(C)(C)CO2)nn1 [Compound I-664]	> 75%	IC50: ≤ 300 nM
CC1(C)CN(c2ccc(-c3cn(C[C@H]4CCCCO4)nn3)c(OC3CC3)c2)C1 [Compound I-749]	50 to 75%	inhibition at 2 µM: > 75%; IC50: ≤ 300 nM
Cc1cc(C#CC2CC2)ccc1-c1cn(CC23CC(CO2)C3)nn1 [Compound I-525]	≤ 25%	
C(#Cc1ccc(-c2cn(CC3CCCCO3)nn2)cc1)CN1CCCCC1 (centres unmarked) [Compound I-48]		inhibition at 15 µM (HEK293, single concentration 15 μM (designated H)): ≤ 25%
Cc1cc(N2CC3CCC(C2)N3Cc2ccccn2)ccc1-c1cn(CC2CCCCO2)nn1 (centres unmarked) [Compound I-466]	≤ 25%	
Cc1cc(N2CC(C)(C)C2)ccc1-c1cn(CC2OCC(C)(C)CO2)nn1 [Compound I-665]	> 75%	IC50: ≤ 300 nM
Cc1cc(N2CC(C(C)(C)O)C2)ccc1-c1cn(CC2CCCCO2)nn1 (centres unmarked) [Compound I-477]	50 to 75%	
Cc1cc(C#CC2CC2)ccc1-c1cn(C[C@H]2CCCCO2)nn1 [Compound I-175]		inhibition at 5 µM (HEK293, single concentration 5 μM (designated D)): 50 to 75%; IC50: 1000 to 3000 nM
COC(=O)NCC#Cc1cnc(-c2cn(CC3CCCCO3)nn2)c(C)c1 (centres unmarked) [Compound I-573]	> 75%	
Cc1cc(C#CC2CC2)ccc1-c1cn(CC2CC(F)(F)CCO2)nn1 (centres unmarked) [Compound I-497]	25 to 50%	
Cc1ccc(-c2ccc(-c3cn(C[C@H]4CCCO4)nn3)cc2)cn1 [Compound I-31]		inhibition at 25 µM: ≤ 25%
Cc1ccc(C#CC2CC2)cc1Cc1cn(CC2CCc3ccccc3O2)nn1 (centres unmarked) [Compound I-551]	25 to 50%	
CNC1(C)CN(c2ccc(-c3cn(CC4CCCCO4)nn3)c(C)c2)C1 (centres unmarked) [Compound I-506]	50 to 75%	

Structure (SMILES)	inhibition at 10 µM	other results
Cc1cc(C2CCCN(Cc3ccccn3)C2)ccc1-c1cn(CC2CCCCO2)nn1 (centres unmarked) [Compound I-546]	50 to 75%	
COCc1cc(C#CC2CC2)ccc1-c1cn(CC2CCCCO2)nn1 (centres unmarked) [Compound I-206]	50 to 75%	
Cc1ccc(-c2ccc(C3CN(CC4CCCCO4)C(=O)O3)c(C)c2)cn1 (centres unmarked) [Compound I-406, 5-(2-methyl-4-(6-methylpyridin-3-yl)phenyl)-3-((tetrahydro-2H-pyran-2-yl)methyl)oxazolidin-2-one]	≤ 25%	
Cc1ccc(N2CC(C)(C)C2)cc1-c1cn(CC2CCCCO2)nn1 (centres unmarked) [Compound I-213]	≤ 25%	
COC(c1cn(CC2CC(C)(C)CO2)nn1)c1cc(C#CC2CC2)ccc1C (centres unmarked) [Compound I-642]	> 75%	IC50: 1000 to 3000 nM
C(#CC1CC1)c1ccc(-c2cn(C[C@H]3COc4ccccc4O3)nn2)cc1 [Compound I-23]		inhibition at 25 µM: ≤ 25%
Cc1c(-c2ccc(C#CC3CC3)cc2)nnn1C[C@H]1CCCCO1 [Compound I-29]		inhibition at 25 µM: 50 to 75%
COC(c1cn(CC2CCCCO2)nn1)c1cc(C#CC2CC2)ccc1F (centres unmarked) [Compound I-621]	50 to 75%	
Cc1cc(C#CCO)cnc1-c1cn(C[C@H]2CCCCO2)nn1 [Compound I-272]	50 to 75%	
Cc1cc(C#CC2CC2)ccc1-c1cn(Cc2nccn2C)nn1 [Compound I-517]	≤ 25%	
Cc1ccc(-c2ccc(-c3nnn(CC4CCCCO4)n3)cc2)cn1 (centres unmarked) [Compound I-2]		inhibition at 25 µM: ≤ 25%
CCOCC#Cc1cnc(-c2cn(CC3OCC(C)(C)CO3)nn2)c(OC2CC2)c1 [Compound I-819]	> 75%	IC50: ≤ 300 nM
Cc1ccc(C#CC2CC2)cc1-c1cn(CC2OCCCC2(C)C)nn1 (centres unmarked) [Compound I-568]	≤ 25%	
Cc1cc(C#CC2CC2)ccc1-c1cn(CC2CC(C)(C)CO2)nn1 (centres unmarked) [Compound I-226]	> 75%	IC50: 1000 to 3000 nM
O=C(O)c1cnc(-c2cn(CC3OCC4(CC4)CO3)nn2)c(OC2CC2)c1 [Compound I-855]		inhibition at 2 µM: > 75%
Cc1cc(C#CC2CC2)ccc1-c1cn(CC2OCCO2)nn1 [Compound I-457]	≤ 25%	
Cc1cc(N2CC(C)C2)ccc1-c1cn(CC2CCCCO2)nn1 (centres unmarked) [Compound I-264]	50 to 75%	
C[C@@H]1Cc2oc(C(=O)NCc3cnc(C4CC4)cn3)c(C(F)(F)F)c2-c2nn(C[C@H]3COCCO3)cc21 [Compound I-775]		IC50: ≤ 300 nM
C(#CC1CC1)c1ccc2c(c1)CCc1cn(CC3CCCCO3)nc1-2 (centres unmarked) [Compound I-328]	≤ 25%	
Cc1cc(C#CCN)cnc1-c1cn(CC2CCCCO2)nn1 (centres unmarked) [Compound I-826, 3-(5-methyl-6-(1-((tetrahydro-2H-pyran-2-yl)methyl)-1H-1,2,3-triazol-4-yl)pyridin-3-yl)prop-2-yn-1-amine]	> 75%	
O=S1(=O)CCC(Cn2cc(-c3ccc(C#CC4CC4)cc3)nn2)CC1 [Compound I-56]		inhibition at 25 µM: ≤ 25%
Cc1cc(N2CC3(CCN(Cc4ccccc4)CC3)C2)ccc1-c1cn(CC2CCCCO2)nn1 (centres unmarked) [Compound I-156]	50 to 75%	
Cc1cc(N2CCN(C(C)c3ccccn3)CC2)ccc1-c1cn(CC2OCC(C)(C)CO2)cn1 (centres unmarked) [Compound I-828]	50 to 75%	IC50: 300 to 1000 nM
